Test results reported in PMC6718324 (European journal of medicinal chemistry, 2019).

Legend:
hPXR = molecular target: T1, hPXR (Homo sapiens, UniProt O75469); assay: HepG2 cell reporter assay, hPXR activation; format: cell-based; conditions: HepG2 cell reporter assays, 1 μM
T1 sequence (O75469 1-434): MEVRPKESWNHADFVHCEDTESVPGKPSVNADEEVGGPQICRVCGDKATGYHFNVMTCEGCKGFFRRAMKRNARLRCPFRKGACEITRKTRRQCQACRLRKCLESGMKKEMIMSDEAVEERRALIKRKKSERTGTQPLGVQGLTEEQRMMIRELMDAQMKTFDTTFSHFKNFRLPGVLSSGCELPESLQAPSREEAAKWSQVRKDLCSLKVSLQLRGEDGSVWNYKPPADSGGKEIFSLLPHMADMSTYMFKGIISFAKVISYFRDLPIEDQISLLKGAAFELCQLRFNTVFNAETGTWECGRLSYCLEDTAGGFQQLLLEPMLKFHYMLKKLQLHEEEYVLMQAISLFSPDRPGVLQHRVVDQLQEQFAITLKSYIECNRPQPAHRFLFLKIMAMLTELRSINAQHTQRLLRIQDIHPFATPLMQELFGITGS

Stability = format: physicochemical
hCAR [1] = assay: hCAR nuclear translocation assay in HPH; format: cell-based, human; conditions: Ad-EYFP-hCAR-infected HPH, 1 μM, 8 h
hCAR [2] = assay: HepG2 cell reporter assay, hCAR activation; format: cell-based, human; conditions: 1 μM; normalized against CITCO
SU-DHL-4 cells = assay: CHOP-mediated cytotoxicity in HPH/SU-DHL-4 co-culture; format: cell-based, human

c1ccc2c(c1)CC(NCc1c(-c3ccc4ccccc4c3)nc3occn13)C2 [DL5016, N-((6-(Naphthalen-2-yl)imidazo[2,1-b]oxazol-5-yl)methyl)-2,3-dihydro-1H-inden-2-amine]
selectivity for hCAR over hPXR (in words) (hPXR): maintaining selectivity over hPXR | stability (in words) (Stability): excellent stability | hCAR translocation from cytoplasm to nucleus (in words) (hCAR [1]): efficiently translocated into the nucleus | hCAR activation in HepG2 cell reporter assay (in words) (hCAR [2]): significant improvement in hCAR activation over CITCO | effect on CHOP-induced cytotoxicity in SU-DHL-4 cells (in words) (SU-DHL-4 cells; DL5016 1 μM with CHOP, 24 h): significantly enhanced CHOP-induced cytotoxicity | cytotoxicity of compound alone in co-cultured SU-DHL-4 cells (in words) (SU-DHL-4 cells; control experiment without CHOP): did not show cytotoxicity
